According to PubChem BioAssay AID264 (DTP/NCI, 2004):
“And” between values parts separate entries of the source, which are not always exact repeats. Equal values may be shown once. Records with an inconclusive call do not appear.

Test system: nude mice, LX-1 lung xenograft intrarenal, tumor weight T/C
Experiment: NCI In Vivo Anticancer Drug Screen. Data for tumor model Human Lung LX-1 Xenograft (intrarenal inoculation) in NU/NU Swiss (nude) mice
Settings: endpoint: mean tumor weight change, higher = larger tumour
Method in brief: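 Antitumor effect is expressed as a ratio: the mean tumor measurement of the drug-treated group relative to that of the vehicle-dosed control group.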

[1] = dose: 300.0 mg/kg/injection, schedule: Q04DX003 (sc), vehicle: Klucel (hydroxypropylcellulose) (HPC)
[2] = dose: 600.0 mg/kg/injection, schedule: Q04DX003 (sc), vehicle: Klucel (hydroxypropylcellulose) (HPC)
[3] = dose: 1200.0 mg/kg/injection, schedule: Q04DX003 (sc), vehicle: Klucel (hydroxypropylcellulose) (HPC)
[4] = dose: 75.0 mg/kg/injection, schedule: Q04DX003 (sc), vehicle: saline with Tween-80
[5] = dose: 150.0 mg/kg/injection, schedule: Q04DX003 (sc), vehicle: saline with Tween-80
[6] = dose: 300.0 mg/kg/injection, schedule: Q04DX003 (sc), vehicle: saline with Tween-80
[7] = dose: 50.0 mg/kg/injection, schedule: Q01DX010 (sc), vehicle: Klucel (hydroxypropylcellulose) (HPC)
[8] = dose: 100.0 mg/kg/injection, schedule: Q01DX010 (sc), vehicle: Klucel (hydroxypropylcellulose) (HPC)
[9] = dose: 16.0 mg/kg/injection, schedule: Q04DX003 (sc), vehicle: saline
[10] = dose: 300.0 mg/kg/injection, schedule: Q04DX003 (sc), vehicle: saline
[11] = dose: 600.0 mg/kg/injection, schedule: Q04DX003 (sc), vehicle: saline with Tween-80

## O/N=C/c1ccccc1O.O/N=C/c1ccccc1O.[Cu]
dose: 100.0 mg/kg/injection, schedule: Q04DX003 (sc), vehicle: saline with Tween-80
  T/C: 72 % of control
dose: 200.0 mg/kg/injection, schedule: Q04DX003 (sc), vehicle: saline with Tween-80
  T/C: 67 % of control and 72 % of control
dose: 400.0 mg/kg/injection, schedule: Q04DX003 (sc), vehicle: saline with Tween-80
  T/C: 93 % of control

## O=C1C(NCC(O)CO)=C(N2CC2)C(=O)C(NCC(O)CO)=C1N1CC1 (centres undefined)
dose: 4.0 mg/kg/injection, schedule: Q04DX003 (ip), vehicle: saline
  T/C: 102 % of control
dose: 8.0 mg/kg/injection, schedule: Q04DX003 (ip), vehicle: saline
  T/C: 84 % of control
dose: 16.0 mg/kg/injection, schedule: Q04DX003 (ip), vehicle: saline
  T/C: 61 % of control
dose: 32.0 mg/kg/injection, schedule: Q04DX003 (ip), vehicle: saline
  T/C: 50 % of control

## CC(=O)OC1=NC(C)c2c1cc(OC(C)=O)[nH]c2=O (centres undefined)
dose: 150.0 mg/kg/injection, schedule: Q04DX003 (sc), vehicle: Klucel (hydroxypropylcellulose) (HPC)
  T/C: 90 % of control
[1]
  T/C: 87 % of control
[2]
  T/C: 87 % of control
[3]
  T/C: 74 % of control

## C[C@]12CCC(=O)C=C1CC[C@@H]1[C@@H]2C(=O)C[C@@]2(C)[C@H]1CC[C@]2(O)C(=O)CO
[1]
  T/C: 38 % of control
[2]
  T/C: 34 % of control
[3]
  T/C: 52 % of control

## OCCN1CCN(CC/C=C2/c3ccccc3Sc3ccc(C(F)(F)F)cc32)CC1
dose: 10.0 mg/kg/injection, schedule: Q01DX010 (sc), vehicle: saline
  T/C: 54 % of control
dose: 20.0 mg/kg/injection, schedule: Q01DX010 (sc), vehicle: saline
  T/C: 45 % of control
dose: 40.0 mg/kg/injection, schedule: Q01DX010 (sc), vehicle: saline
  T/C: 29 % of control

## NC(=O)c1ncn2c(=O)n(CCCl)nnc12
dose: 12.5 mg/kg/injection, schedule: Q04DX003 (sc), vehicle: saline
  T/C: 56 % of control and 64 % of control
dose: 12.5 mg/kg/injection, schedule: Q04DX003 (sc), vehicle: suspension in saline
  T/C: 80 % of control
dose: 25.0 mg/kg/injection, schedule: Q04DX003 (sc), vehicle: saline
  T/C: 23 % of control and 40 % of control
dose: 25.0 mg/kg/injection, schedule: Q04DX003 (sc), vehicle: suspension in saline
  T/C: 49 % of control
dose: 50.0 mg/kg/injection, schedule: Q04DX003 (sc), vehicle: saline
  T/C: 3 % of control and 19 % of control
dose: 50.0 mg/kg/injection, schedule: Q04DX003 (sc), vehicle: suspension in saline
  T/C: 18 % of control
dose: 100.0 mg/kg/injection, schedule: Q04DX003 (sc), vehicle: saline
  T/C: 7 % of control

## C=CC(=O)N1CN(C(=O)C=C)CN(C(=O)C=C)C1
dose: 6.25 mg/kg/injection, schedule: Q01DX010 (sc), vehicle: saline with Tween-80
  T/C: 92 % of control
dose: 12.5 mg/kg/injection, schedule: Q01DX010 (sc), vehicle: saline with Tween-80
  T/C: 110 % of control
dose: 25.0 mg/kg/injection, schedule: Q01DX010 (sc), vehicle: saline with Tween-80
  T/C: 67 % of control

## CC[C@@]1(O)C(=O)OCc2c1cc1n(c2=O)Cc2cc3cc(O)ccc3nc2-1
dose: 32.0 mg/kg/injection, schedule: Q04DX003 (sc), vehicle: suspension in saline
  T/C: 12 % of control and 14 % of control

## CCOC(=O)Nc1cc2c(c(N)n1)N=C(c1ccc(Cl)cc1Cl)CN2
dose: 37.5 mg/kg/injection, schedule: Q04DX003 (sc), vehicle: saline with Tween-80
  T/C: 82 % of control
[4]
  T/C: 76 % of control
[5]
  T/C: 64 % of control
[6]
  T/C: 66 % of control

## CN(C)/N=N/c1nc[nH]c1C(N)=O
[7]
  T/C: 4 % of control
[8]
  T/C: -84 % of control
dose: 200.0 mg/kg/injection, schedule: Q01DX010 (sc), vehicle: Klucel (hydroxypropylcellulose) (HPC)
  T/C: -100 % of control

## Cc1c(N)nc([C@H](CC(N)=O)NC[C@H](N)C(N)=O)nc1C(=O)N[C@H](C(=O)N[C@H](C)[C@@H](O)[C@H](C)C(=O)N[C@H](C(=O)NCCc1nc(-c2nc(C(=O)NCCC[S+](C)C)cs2)cs1)[C@@H](C)O)C(OC1OC(CO)C(O)C(O)C1OC1OC(CO)C(O)C(OC(N)=O)C1O)c1cnc[nH]1 (some centres undefined)
dose: 2.0 mg/kg/injection, schedule: Q01DX010 (sc), vehicle: saline
  T/C: 14 % of control
dose: 4.0 mg/kg/injection, schedule: Q01DX010 (sc), vehicle: saline
  T/C: 71 % of control
[9]
  T/C: 49 % of control
dose: 32.0 mg/kg/injection, schedule: Q04DX003 (sc), vehicle: saline
  T/C: 47 % of control

## Cc1c(N)nc(C(CC(N)=O)NCC(N)C(N)=O)nc1C(=O)NC(C(=O)NC(C)C(O)CC(=O)NC(C(=O)NC(OC1OC(C)C(N)C(O)C1O)C(O)c1nc(-c2nc(C(=O)NCCCC(N)CC(=O)NCCCNCCCCN)cs2)cs1)C(C)O)C(OC1OC(CO)C(O)C(O)C1OC1OC(CO)C(O)C(OC(N)=O)C1O)c1cnc[nH]1 (centres undefined)
[9]
  T/C: 73 % of control

## CCCCCCCCCCCCCCCCP(=O)(OCCOCCCCCC)OCCOCCCCCC
dose: 75.0 mg/kg/injection, schedule: Q04DX003 (sc), vehicle: saline
  T/C: 114 % of control
dose: 150.0 mg/kg/injection, schedule: Q04DX003 (sc), vehicle: saline
  T/C: 91 % of control
[10]
  T/C: 92 % of control

## CC1(C)CC1(Br)Br
dose: 100.0 mg/kg/injection, schedule: Q01DX010 (sc), vehicle: saline with Tween-80
  T/C: 160 % of control
dose: 200.0 mg/kg/injection, schedule: Q01DX010 (sc), vehicle: saline with Tween-80
  T/C: 76 % of control and 77 % of control
dose: 400.0 mg/kg/injection, schedule: Q01DX010 (sc), vehicle: saline with Tween-80
  T/C: 58 % of control

## C[CH2][Ge]([CH2]C)[CH2]C.C[CH2][Ge]([CH2]C)[CH2]C.C[CH2][Ge]([CH2]C)[O][Ge]([CH2]C)[CH2]C
[4]
  T/C: 91 % of control
[5]
  T/C: 98 % of control
[6]
  T/C: 63 % of control
[11]
  T/C: 114 % of control

## C=C(C)[C@@H]1CCc2c(O)c(O)c(=O)cc(C)c2C1
[10]
  T/C: 106 % of control
dose: 600.0 mg/kg/injection, schedule: Q04DX003 (sc), vehicle: saline
  T/C: 62 % of control
dose: 1200.0 mg/kg/injection, schedule: Q04DX003 (sc), vehicle: saline
  T/C: 90 % of control
dose: 2400.0 mg/kg/injection, schedule: Q04DX003 (sc), vehicle: saline
  T/C: 85 % of control

## C/C=C/c1cc2n(c1)C(=O)c1cc(OC3OC(C)C(NC)C(C)(O)C3O)c(C)c(O)c1NC2O (centres undefined)
dose: 50.0 micrograms/kg/injection, schedule: Q04DX003 (sc), vehicle: saline
  T/C: 54 % of control
dose: 200.0 micrograms/kg/injection, schedule: Q04DX003 (sc), vehicle: saline
  T/C: 92 % of control
dose: 400.0 micrograms/kg/injection, schedule: Q04DX003 (sc), vehicle: saline
  T/C: 91 % of control

## N#CC(C#N)=C/C=C/c1cccc([N+](=O)[O-])c1
dose: 25.0 mg/kg/injection, schedule: Q01DX010 (sc), vehicle: Klucel (hydroxypropylcellulose) (HPC)
  T/C: 90 % of control
[7]
  T/C: 83 % of control
[8]
  T/C: 69 % of control
dose: 400.0 mg/kg/injection, schedule: Q01DX010 (sc), vehicle: Klucel (hydroxypropylcellulose) (HPC)
  T/C: 84 % of control
dose: 800.0 mg/kg/injection, schedule: Q01DX010 (sc), vehicle: Klucel (hydroxypropylcellulose) (HPC)
  T/C: 42 % of control

## Cc1ccc(NC(=O)Oc2ccc(Br)cc2Br)c([N+](=O)[O-])c1
[6]
  T/C: 61 % of control
[11]
  T/C: 98 % of control
dose: 1200.0 mg/kg/injection, schedule: Q04DX003 (sc), vehicle: saline with Tween-80
  T/C: 93 % of control
dose: 2400.0 mg/kg/injection, schedule: Q04DX003 (sc), vehicle: saline with Tween-80
  T/C: 68 % of control

## Nc1nc(=S)c2ncn(C3CC(O)C(CO)O3)c2[nH]1 (centres undefined)
dose: 0.31 mg/kg/injection, schedule: Q01DX010 (sc), vehicle: saline with Tween-80
  T/C: 108 % of control
dose: 0.63 mg/kg/injection, schedule: Q01DX010 (sc), vehicle: saline with Tween-80
  T/C: 66 % of control
dose: 1.25 mg/kg/injection, schedule: Q01DX010 (sc), vehicle: saline with Tween-80
  T/C: 85 % of control
dose: 2.5 mg/kg/injection, schedule: Q01DX010 (sc), vehicle: saline with Tween-80
  T/C: 83 % of control

## c1ccc([P+](c2ccccc2)(c2ccccc2)c2ccccc2)cc1
dose: 2.5 mg/kg/injection, schedule: Q04DX003 (sc), vehicle: saline
  T/C: 93 % of control
dose: 5.0 mg/kg/injection, schedule: Q04DX003 (sc), vehicle: saline
  T/C: 107 % of control
dose: 10.0 mg/kg/injection, schedule: Q04DX003 (sc), vehicle: saline
  T/C: 71 % of control and 87 % of control

## CC(=O)N(C)C
dose: 450.0 mg/kg/injection, schedule: Q01DX010 (sc), vehicle: saline
  T/C: 70 % of control
